{"source": "patent US6476012B2", "about": "“Estradiol-16α-carboxylic acid esters as locally active estrogens” (Yale University, priority 2001, dated 2002)", "origin": "cited, not measured here", "key": {"ERβ": {"target": "ERβ (Homo sapiens, UniProt Q92731)", "sequence (Q92731 whole entry, species assumed)": "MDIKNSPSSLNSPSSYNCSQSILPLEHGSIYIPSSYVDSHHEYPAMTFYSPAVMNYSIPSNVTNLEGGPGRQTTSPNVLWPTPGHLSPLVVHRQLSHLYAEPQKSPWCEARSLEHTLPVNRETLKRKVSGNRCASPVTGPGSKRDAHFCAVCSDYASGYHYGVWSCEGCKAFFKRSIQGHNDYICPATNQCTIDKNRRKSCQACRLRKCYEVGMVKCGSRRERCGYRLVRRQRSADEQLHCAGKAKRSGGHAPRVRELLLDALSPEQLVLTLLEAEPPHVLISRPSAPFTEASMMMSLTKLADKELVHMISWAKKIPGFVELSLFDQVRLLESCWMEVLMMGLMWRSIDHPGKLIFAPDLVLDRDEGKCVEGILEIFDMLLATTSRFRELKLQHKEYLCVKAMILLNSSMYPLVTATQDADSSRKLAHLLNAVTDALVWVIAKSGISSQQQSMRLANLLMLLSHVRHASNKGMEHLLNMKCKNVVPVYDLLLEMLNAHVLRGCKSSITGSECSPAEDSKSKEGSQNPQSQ", "details": "previously reported; cited from earlier work"}, "classical ER, ERα": {"target": "T1, classical ER, ERα (Homo sapiens, UniProt P03372)", "T1 sequence (P03372 1-595)": "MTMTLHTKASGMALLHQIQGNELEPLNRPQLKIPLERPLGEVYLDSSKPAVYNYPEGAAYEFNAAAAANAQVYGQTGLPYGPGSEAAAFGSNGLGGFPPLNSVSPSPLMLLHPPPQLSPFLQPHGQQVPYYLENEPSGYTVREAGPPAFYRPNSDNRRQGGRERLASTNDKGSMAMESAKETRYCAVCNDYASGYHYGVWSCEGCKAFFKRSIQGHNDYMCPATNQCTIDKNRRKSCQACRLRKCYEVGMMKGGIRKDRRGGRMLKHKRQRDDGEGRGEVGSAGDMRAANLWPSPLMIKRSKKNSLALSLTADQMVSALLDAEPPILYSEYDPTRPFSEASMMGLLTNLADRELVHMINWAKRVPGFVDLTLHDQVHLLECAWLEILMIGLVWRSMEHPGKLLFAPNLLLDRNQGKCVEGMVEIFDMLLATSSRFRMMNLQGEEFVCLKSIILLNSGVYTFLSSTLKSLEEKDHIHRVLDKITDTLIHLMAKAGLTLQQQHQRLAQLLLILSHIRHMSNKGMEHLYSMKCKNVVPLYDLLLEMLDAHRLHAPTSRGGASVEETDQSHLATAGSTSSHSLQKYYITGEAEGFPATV", "details": "previously reported; cited from earlier work"}}, "data": [{"smiles": "C[C@]12CC[C@@H]3c4ccc(O)cc4CC[C@H]3[C@@H]1C[C@@H](I)[C@@H]2O", "note": "[16α-iodoestradiol]", "values": [{"measurement": "binding to ERβ", "setting": "ERβ", "value": "binds only poorly"}, {"measurement": "binding to ERα", "setting": "classical ER, ERα", "value": "binds with high affinity"}]}]}
